One assay deals with T1, Human autotaxin enzyme (Homo sapiens, UniProt Q13822).
T1 construct: purchased R&D System
Briefly: Evaluation of autotaxin inhibitor, Method C (Test Example 3): 18:0 Lyso PC, choline assay, Resorufin fluorescence. The assay is classed as biochemical. As to conditions: Assay Method C (Test Example 3), human autotaxin, 18:0 Lyso PC substrate; read-out: Inhibitory Activity (autotaxin enzyme inhibitory activity, IC50 class). The essentials: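 Choline-coupled fluorescence readout (20 min, resorufin at 531/598 nm) followed a 2 h room-temperature reaction of human autotaxin with 18:0 Lyso PC substrate (added as 200 μM solution) in pH 7.5 Tris buffer containing MgCl2 and Triton X-100. Percent inhibition scaled to no-compound (0%) and no-enzyme (100%) wells and plotted versus concentration.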
On to `CCCCCn1c(N2CCC[C@H]2C(=O)N[C@H](CC)C(=O)O)cc(=O)n2cc(-c3ccc(Cl)cc3)nc12` [Compound 739], for which the IC50 was less than 10 nM.

On to `CCCCCn1c(N2CCC[C@H]2C(=O)N[C@@H](Cc2ccccc2)C(=O)O)cc(=O)n2cc(-c3ccc(Cl)cc3)nc12` [Compound 740], for which the IC50 was less than 10 nM.

As for `O=C(O)[C@H](Cc1ccccc1)NC(=O)[C@@H]1CCCN1c1cc(=O)n2cc(-c3ccc(Cl)cc3)nc2n1Cc1ccccc1` [Compound 743], the IC50 is less than 10 nM.

For the compound `O=C(O)CNC(=O)[C@@H]1CCCN1c1cc(=O)n2cc(-c3ccc(Cl)cc3)nc2n1Cc1ccccc1` [Compound 744], the IC50 lay within 10 to 100 nM.

As to `O=C(O)[C@H](CCc1ccccc1)NC(=O)[C@@H]1CCCN1c1cc(=O)n2cc(-c3ccc(Cl)cc3)nc2n1Cc1ccccc1` [Compound 745], the IC50 was less than 10 nM.

As for `CC(C)(C)[C@H](NC(=O)[C@@H]1CCCN1c1cc(=O)n2cc(-c3ccc(Cl)cc3)nc2n1Cc1ccccc1)C(=O)O` [Compound 746], the IC50 is less than 10 nM.

With `CC(C)(NC(=O)[C@@H]1CCCN1c1cc(=O)n2cc(-c3ccc(Cl)cc3)nc2n1Cc1ccccc1)C(=O)O` [Compound 747], the IC50 lay within 10 to 100 nM.

For `C[C@H](NC(=O)[C@@H]1CCCN1c1cc(=O)n2cc(-c3ccc(Cl)cc3)nc2n1Cc1ccccc1)C(=O)O` [Compound 748], the IC50 is less than 10 nM.

For `O=C(O)[C@H](Cc1ccccc1)NC(=O)[C@@H]1C[C@@H](O)CN1c1cc(=O)n2cc(-c3ccc(Cl)cc3)nc2n1Cc1ccccc1` [Compound 749], the IC50 is less than 10 nM.

As to `O=C(O)CNC(=O)[C@@H]1C[C@@H](O)CN1c1cc(=O)n2cc(-c3ccc(Cl)cc3)nc2n1Cc1ccccc1` [Compound 750], the IC50 fell in the range of 10 to 100 nM.

Turning to `O=C(O)[C@H](CCc1ccccc1)NC(=O)[C@@H]1C[C@@H](O)CN1c1cc(=O)n2cc(-c3ccc(Cl)cc3)nc2n1Cc1ccccc1` [Compound 751], the IC50 is less than 10 nM.

As to `CC(C)(C)[C@H](NC(=O)[C@@H]1C[C@@H](O)CN1c1cc(=O)n2cc(-c3ccc(Cl)cc3)nc2n1Cc1ccccc1)C(=O)O` [Compound 752], the IC50 is less than 10 nM.

For `CC(C)(NC(=O)[C@@H]1C[C@@H](O)CN1c1cc(=O)n2cc(-c3ccc(Cl)cc3)nc2n1Cc1ccccc1)C(=O)O` [Compound 753], the IC50 was less than 10 nM.

On to `C[C@H](NC(=O)[C@@H]1C[C@@H](O)CN1c1cc(=O)n2cc(-c3ccc(Cl)cc3)nc2n1Cc1ccccc1)C(=O)O` [Compound 754], for which the IC50 is less than 10 nM.

As to `CCn1c(N2CCC[C@H]2C(=O)N[C@@H](Cc2ccccc2)C(=O)O)cc(=O)n2cc(-c3ccc(Cl)cc3)nc12` [Compound 755], the IC50 was 100 to 1000 nM.

For `CCn1c(N2CCC[C@H]2C(=O)NCC(=O)O)cc(=O)n2cc(-c3ccc(Cl)cc3)nc12` [Compound 756], the IC50 was in the range of 100 to 1000 nM.

As for `CCn1c(N2CCC[C@H]2C(=O)N[C@@H](CCc2ccccc2)C(=O)O)cc(=O)n2cc(-c3ccc(Cl)cc3)nc12` [Compound 757], the IC50 lay within 10 to 100 nM.

With `CCn1c(N2CCC[C@H]2C(=O)N[C@H](C(=O)O)C(C)(C)C)cc(=O)n2cc(-c3ccc(Cl)cc3)nc12` [Compound 758], the IC50 fell in the range of 10 to 100 nM.

`CCn1c(N2CCC[C@H]2C(=O)NC(C)(C)C(=O)O)cc(=O)n2cc(-c3ccc(Cl)cc3)nc12` [Compound 759]: the IC50 lay in the range of 10 to 100 nM.

For the compound `CCn1c(N2CCC[C@H]2C(=O)N[C@@H](C)C(=O)O)cc(=O)n2cc(-c3ccc(Cl)cc3)nc12` [Compound 760], the IC50 is 10 to 100 nM.

Turning to `CCn1c(N2C[C@H](O)C[C@H]2C(=O)N[C@@H](Cc2ccccc2)C(=O)O)cc(=O)n2cc(-c3ccc(Cl)cc3)nc12` [Compound 761], the IC50 lay within 100 to 1000 nM.

For `CCn1c(N2C[C@H](O)C[C@H]2C(=O)NCC(=O)O)cc(=O)n2cc(-c3ccc(Cl)cc3)nc12` [Compound 762], the IC50 is more than 1000 nM.

On to `CCn1c(N2C[C@H](O)C[C@H]2C(=O)N[C@@H](CCc2ccccc2)C(=O)O)cc(=O)n2cc(-c3ccc(Cl)cc3)nc12` [Compound 763], for which the IC50 lay within 10 to 100 nM.

For the compound `CCn1c(N2C[C@H](O)C[C@H]2C(=O)N[C@H](C(=O)O)C(C)(C)C)cc(=O)n2cc(-c3ccc(Cl)cc3)nc12` [Compound 764], the IC50 is 10 to 100 nM.

Consider `CCn1c(N2C[C@H](O)C[C@H]2C(=O)NC(C)(C)C(=O)O)cc(=O)n2cc(-c3ccc(Cl)cc3)nc12` [Compound 765], for which the IC50 was in the range of 100 to 1000 nM.

With `CCn1c(N2C[C@H](O)C[C@H]2C(=O)N[C@@H](C)C(=O)O)cc(=O)n2cc(-c3ccc(Cl)cc3)nc12` [Compound 766], the IC50 is 10 to 100 nM.

Regarding `Cn1c(N2CCC[C@H]2C(=O)N[C@@H](Cc2ccccc2)C(=O)O)cc(=O)n2cc(-c3ccc(Cl)cc3)nc12` [Compound 767], the IC50 lay within 100 to 1000 nM.

Take `Cn1c(N2CCC[C@H]2C(=O)NCC(=O)O)cc(=O)n2cc(-c3ccc(Cl)cc3)nc12` [Compound 768]: the IC50 is more than 1000 nM.

In the case of `Cn1c(N2CCC[C@H]2C(=O)N[C@@H](CCc2ccccc2)C(=O)O)cc(=O)n2cc(-c3ccc(Cl)cc3)nc12` [Compound 769], the IC50 lay within 10 to 100 nM.

With `Cn1c(N2CCC[C@H]2C(=O)N[C@H](C(=O)O)C(C)(C)C)cc(=O)n2cc(-c3ccc(Cl)cc3)nc12` [Compound 770], the IC50 lay in the range of 100 to 1000 nM.

For the compound `C[C@H](NC(=O)[C@@H]1CCCN1c1cc(=O)n2cc(-c3ccc(Cl)cc3)nc2n1C)C(=O)O` [Compound 771], the IC50 lay within 100 to 1000 nM.

For the compound `Cn1c(N2C[C@H](O)C[C@H]2C(=O)N[C@@H](Cc2ccccc2)C(=O)O)cc(=O)n2cc(-c3ccc(Cl)cc3)nc12` [Compound 772], the IC50 is 100 to 1000 nM.

Regarding `Cn1c(N2C[C@H](O)C[C@H]2C(=O)NCC(=O)O)cc(=O)n2cc(-c3ccc(Cl)cc3)nc12` [Compound 773], the IC50 is more than 1000 nM.

Regarding `Cn1c(N2C[C@H](O)C[C@H]2C(=O)N[C@H](C(=O)O)C(C)(C)C)cc(=O)n2cc(-c3ccc(Cl)cc3)nc12` [Compound 774], the IC50 fell in the range of 10 to 100 nM.

As for `CCCCCn1c(N2C[C@@H](O)C[C@H]2C(=O)N[C@@H](Cc2ccccc2)C(=O)O)cc(=O)n2cc(-c3ccc(Cl)cc3)nc12` [Compound 775], the IC50 was less than 10 nM.

As for `CCCCCn1c(N2C[C@@H](O)C[C@H]2C(=O)NCC(=O)O)cc(=O)n2cc(-c3ccc(Cl)cc3)nc12` [Compound 776], the IC50 is less than 10 nM.

For the compound `CCCCCn1c(N2C[C@@H](O)C[C@H]2C(=O)N[C@@H](CCc2ccccc2)C(=O)O)cc(=O)n2cc(-c3ccc(Cl)cc3)nc12` [Compound 777], the IC50 is less than 10 nM.

As to `CCCCCn1c(N2C[C@@H](O)C[C@H]2C(=O)N[C@H](C(=O)O)C(C)(C)C)cc(=O)n2cc(-c3ccc(Cl)cc3)nc12` [Compound 778], the IC50 is less than 10 nM.

As for `CCCCCn1c(N2C[C@@H](O)C[C@H]2C(=O)N[C@@H](C)C(=O)O)cc(=O)n2cc(-c3ccc(Cl)cc3)nc12` [Compound 779], the IC50 was less than 10 nM.

Still in this assay, the particulars now being: Assay Method C, human autotaxin, 18:0 Lyso PC substrate; read-out: Inhibitory Activity.
With `Cn1c(N2CCC[C@H]2C(=O)NC(C)(C)C(=O)O)cc(=O)n2cc(-c3ccc(Cl)cc3)nc12` [Compound 780], the IC50 is 100 to 1000 nM.

Consider `Cn1c(N2C[C@H](O)C[C@H]2C(=O)NC(C)(C)C(=O)O)cc(=O)n2cc(-c3ccc(Cl)cc3)nc12` [Compound 781], for which the IC50 is more than 1000 nM.

As for `C[C@H](NC(=O)[C@@H]1C[C@@H](O)CN1c1cc(=O)n2cc(-c3ccc(Cl)cc3)nc2n1C)C(=O)O` [Compound 782], the IC50 lay within 100 to 1000 nM.

As to `CCCCCn1c(N2CCC[C@H]2C(=O)Nc2nn[nH]n2)cc(=O)n2cc(-c3ccc(Cl)cc3)nc12` [Compound 783], the IC50 was in the range of 10 to 100 nM.

On to `CCCCCn1c(N2CCC[C@H]2C(=O)Nc2ccc(-c3nn[nH]n3)cc2)cc(=O)n2cc(-c3ccc(Cl)cc3)nc12` [Compound 784], for which the IC50 lay in the range of 100 to 1000 nM.

Regarding `CCCCCn1c(N2CCC[C@H]2C(=O)NCC(O)C(F)(F)F)cc(=O)n2cc(-c3ccc(Cl)cc3)nc12` (stereo partly drawn) [Compound 785], the IC50 fell in the range of 100 to 1000 nM.

Turning to `CCCCCn1c(N2CCC[C@H]2C(=O)NCC(O)CC(F)(F)F)cc(=O)n2cc(-c3ccc(Cl)cc3)nc12` (stereo partly drawn) [Compound 786], the IC50 lay within 100 to 1000 nM.

For the compound `CCCCCn1c(N2CCC[C@H]2C(=O)Nc2cccc(-c3nn[nH]n3)c2)cc(=O)n2cc(-c3ccc(Cl)cc3)nc12` [Compound 787], the IC50 fell in the range of 100 to 1000 nM.

Regarding `CCCCCn1c(N2CCC[C@H]2C(=O)Nc2cc(O)[nH]n2)cc(=O)n2cc(-c3ccc(Cl)cc3)nc12` [Compound 788], the IC50 is more than 1000 nM.

Regarding `CCCCCn1c(N2CCC[C@H]2C(=O)NC(C(N)=O)c2ccccc2)cc(=O)n2cc(-c3ccc(Cl)cc3)nc12` (stereo partly drawn) [Compound 789], the IC50 was 10 to 100 nM.

For the compound `CCCCCn1c(N2CCC[C@H]2C(=O)NCc2c[nH]nn2)cc(=O)n2cc(-c3ccc(Cl)cc3)nc12` [Compound 790], the IC50 was less than 10 nM.

Turning to `CCCCCn1c(N2CCC[C@H]2C(=O)Nc2ccccc2-c2nn[nH]n2)cc(=O)n2cc(-c3ccc(Cl)cc3)nc12` [Compound 791], the IC50 was 100 to 1000 nM.

`CCCCCn1c(N2CCC[C@H]2C(=O)NC[C@H](O)C(F)(F)F)cc(=O)n2cc(-c3ccc(Cl)cc3)nc12` [Compound 792]: the IC50 lay in the range of 100 to 1000 nM.

As to `CCCCCn1c(N2CCC[C@H]2C(=O)Nc2ccc(O)c(OC)c2)cc(=O)n2cc(-c3ccc(Cl)cc3)nc12` [Compound 793], the IC50 was 100 to 1000 nM.

For the compound `CCCCCn1c(N2CCC[C@H]2C(=O)Nc2nonc2OC)cc(=O)n2cc(-c3ccc(Cl)cc3)nc12` [Compound 794], the IC50 is 10 to 100 nM.

For the compound `CCCCCn1c(N2CCC[C@H]2C(=O)NCc2nn[nH]n2)cc(=O)n2cc(-c3ccc(Cl)cc3)nc12` [Compound 795], the IC50 is less than 10 nM.

Regarding `CCCCCn1c(N2CCC[C@H]2C(=O)Nc2ccc(Oc3nn[nH]n3)cc2)cc(=O)n2cc(-c3ccc(Cl)cc3)nc12` [Compound 796], the IC50 was in the range of 100 to 1000 nM.

Turning to `CCCCCn1c(N2CCC[C@H]2C(=O)N[C@@H](CC(C)C)C(N)=O)cc(=O)n2cc(-c3ccc(Cl)cc3)nc12` [Compound 797], the IC50 lay in the range of 10 to 100 nM.
